What was measured:
[1] = tested on: fruit fly (Drosophila melanogaster); conditions: for FF SYM: % showing intoxicated symptoms at 25 μg/cm2 against fruit fly in dietary tests: 25 μg/cm2, 4 h; for FF 25: % mortality at 25 μg/cm2 against fruit fly in dietary tests: 25 μg/cm2, 48 h
[2] = tested on: beet armyworm (Spodoptera exigua); test: Insecticidal test for beet armyworm in injection assays; conditions: 1 h, read-out: BAW SYM: % showing intoxicated symptoms at 10 μg/larva against beet armyworm in injection tests
[3] = tested on: sweet potato whitefly (Bemisia tabaci); test: Insecticidal test for sweet potato whitefly, foliar spray on cotton; conditions: for % Control at ppm, against sweet potato whitefly: 0.4-0.78: 0.4-0.78 ppm; for % Control at ppm, against sweet potato whitefly: 0.4-0.78 / % Control at ppm, against sweet potato whitefly: 2-3.13 / % Control at ppm, against sweet potato whitefly: 10-12.5 / % Control at ppm, against sweet potato whitefly: 50: rundown assay; for % Control at ppm, against sweet potato whitefly: 2-3.13: 2-3.13 ppm; for % Control at ppm, against sweet potato whitefly: 10-12.5: 10-12.5 ppm; for % Control at ppm, against sweet potato whitefly: 50: 50 ppm; for pest or weed control at 200 ppm: Bemisia tabaci, in Gossypium hirsutum, foliar, read-out: SPW 200: % control at 200 ppm against sweet potato whitefly in foliar spray tests
[4] = tested on: beet armyworm (Spodoptera exigua); conditions: 50 μg/cm2, second-instar larvae, 5 days
[5] = tested on: Colorado potato beetle (Leptinotarsa decemlineata); test: Insecticidal test for Colorado potato beetle, foliar spray on tomato; type: in vivo; conditions: for % Control at ppm, against Colorado potato beetle: 3.13: 3.13 ppm; for % Control at ppm, against Colorado potato beetle: 12.5: 12.5 ppm; for CPB 50: % control at 50 ppm against Colorado potato beetle in foliar spray tests: 5 days, Corrected % Control; for CPB 50: % control at 50 ppm against Colorado potato beetle in foliar spray tests / % Control at ppm, against Colorado potato beetle: 50: 50 ppm
Description: Insecticidal Test for Colorado Potato Beetle (Leptinotarsa decemlineata).
Tomato seedlings at the growth stage of three or four expanding leaves were used. […] Treated plants were held in the laboratory for approximately 3 h to allow drying before the upper portion (with two or three leaves) of a plant was cut and placed in a 10×2.5-cm petri dish containing approximately 10 mL of solidified 1% agar at the bottom. Five 2nd or 3rd instar larvae were placed on the treated plant tissue, and the petri dishes were covered and held in an incubator at 25° C. At 5 days following treatment, insecticidal activity was evaluated by counting the number of live larvae in each dish.

[6] = tested on: yellow fever mosquito (Aedes aegypti) larvae; test: whole plant or invertebrate; type: in vivo; conditions: 72 h, read-out: YFM 26: % control at 26 ppm against yellow fever mosquito in submerge tests
[7] = tested on: cotton aphid (Aphis gossypii); test: Insecticidal test for cotton aphid, foliar spray on squash; conditions: for pest or weed control at 50 ppm / pest or weed control at 200 ppm: Aphis gossypii, foliar, 72 h; for pest or weed control at 50 ppm: read-out: CA 50: % control at 50 ppm against cotton aphid in foliar spray tests; for pest or weed control at 200 ppm: read-out: CA 200: % control at 200 ppm against cotton aphid in foliar spray tests; for % Control at ppm, against cotton aphid: 0.012: 0.012 ppm; for % Control at ppm, against cotton aphid: 0.049: 0.049 ppm; for % Control at ppm, against cotton aphid: 0.195: 0.195 ppm; for % Control at ppm, against cotton aphid: 0.78: 0.78 ppm; for % Control at ppm, against cotton aphid: 3.12: 3.12 ppm
[8] = tested on: corn earworm (Helicoverpa zea); conditions: 50 μg/cm2, second-instar larvae, 5 days
[9] = tested on: green peach aphid (Myzus persicae); test: Insecticidal test for green peach aphid, foliar spray on cabbage seedlings; conditions: rundown assay, 3 days; for % Control at ppm, against green peach aphid: 0.012: 0.012 ppm; for % Control at ppm, against green peach aphid: 0.049: 0.049 ppm; for % Control at ppm, against green peach aphid: 0.195: 0.195 ppm; for % Control at ppm, against green peach aphid: 0.78: 0.78 ppm; for % Control at ppm, against green peach aphid: 3.12: 3.12 ppm

| SMILES | FF SYM: % showing intoxicated symptoms at 25 μg/cm2 against fruit fly in dietary tests [1] | FF 25: % mortality at 25 μg/cm2 against fruit fly in dietary tests [1] | pest or weed control at 0.01 mg [2] | % Control at ppm, against sweet potato whitefly: 0.4-0.78 [3] | % Control at ppm, against sweet potato whitefly: 2-3.13 [3] | % Control at ppm, against sweet potato whitefly: 10-12.5 [3] | % Control at ppm, against sweet potato whitefly: 50 [3] | pest or weed control at 200 ppm [3] | BAW 50: % mortality at 50 μg/cm2 against beet armyworm in dietary tests [4] | % Control at ppm, against Colorado potato beetle: 12.5 ([5]; rundown assay) | CPB 50: % control at 50 ppm against Colorado potato beetle in foliar spray tests [5] | % Control at ppm, against Colorado potato beetle: 50 ([5]; rundown assay) | pest or weed control at 26 ppm [6] | pest or weed control at 50 ppm [7] | pest or weed control at 200 ppm [7] | CEW 50: % mortality at 50 μg/cm2 against corn earworm in dietary tests [8] | % Control at ppm, against green peach aphid: 0.049 [9] | % Control at ppm, against green peach aphid: 0.195 [9] | % Control at ppm, against green peach aphid: 0.78 [9] | % Control at ppm, against green peach aphid: 3.12 [9] | other results |
| --- | --- | --- | --- | --- | --- | --- | --- | --- | --- | --- | --- | --- | --- | --- | --- | --- | --- | --- | --- | --- | --- |
| CC(c1ccc(Cl)nc1)S(C)(=O)=NC#N (centres unmarked) [Compound 8, [1-(6-chloropyridin-3-yl)ethyl](methyl)oxido-λ^4-sulfanylidenecyanamide] | A (90-100) | A (90-100) | 50 to 59% | A (90-100) | A (90-100) | A (90-100) | A (90-100) | 90 to 100% | G (Inactive) | A (90-100) | A (90-100) | A (90-100) | 90 to 100% | 90 to 100% | 90 to 100% | G (Inactive) |  |  |  |  | % Control at ppm, against Colorado potato beetle: 3.13 ([5]; rundown assay): D (60-69) |
| CC(c1ccc(Cl)nc1)[S@](C)(=O)=NC#N (some centres unmarked) [Compound 29] | A (90-100) | A (90-100) | 90 to 100% | A (90-100) | A (90-100) | A (90-100) | A (90-100) | 90 to 100% | G (Inactive) |  |  |  | 90 to 100% | 90 to 100% | 90 to 100% | G (Inactive) | D (60-69) | A (90-100) | A (90-100) | A (90-100) | % Control at ppm, against green peach aphid: 0.012 [9]: F (Less than 50); % Control at ppm, against cotton aphid: 0.012 ([7]; rundown assay): A (90-100); % Control at ppm, against cotton aphid: 0.049 ([7]; rundown assay): A (90-100); % Control at ppm, against cotton aphid: 0.195 ([7]; rundown assay): A (90-100); % Control at ppm, against cotton aphid: 0.78 ([7]; rundown assay): A (90-100); % Control at ppm, against cotton aphid: 3.12 ([7]; rundown assay): A (90-100) |
| N#CN=S1(=O)CCCCC1Cc1ccc(Cl)nc1 (centres unmarked) [Compound 5, 2-[(6-chloropyridin-3-yl)methyl]-1-oxidohexahydro-1λ^4-thiopyran-1-ylidenecyanamide] |  | G (Inactive) | 50 to 59% |  |  |  |  |  | G (Inactive) |  |  |  | 50 to 59% | 90 to 100% | 90 to 100% | G (Inactive) |  |  |  |  |  |
| CS(=O)(Cc1ccc(Cl)nc1)=NC#N (centres unmarked) [Compound 10, [(6-Chloropyridin-3-yl)methyl](methyl)oxido-λ^4-sulfanylidene-cyanamide] | A (90-100) | A (90-100) | < 50% | F (Less than 50) | D (60-69) | A (90-100) | A (90-100) | 90 to 100% | G (Inactive) | E (50-59) | B (80-89) | B (80-89) | 90 to 100% | 90 to 100% | 90 to 100% | G (Inactive) |  |  |  |  |  |
| C[C@H](c1ccc(Cl)nc1)[S@](C)(=O)=NC#N [Compound 28] | A (90-100) | A (90-100) | 60 to 69% | A (90-100) | A (90-100) | A (90-100) | A (90-100) | 90 to 100% | G (Inactive) |  |  |  | 90 to 100% | 90 to 100% | 90 to 100% | G (Inactive) | F (Less than 50) | B (80-89) | A (90-100) | A (90-100) | % Control at ppm, against green peach aphid: 0.012 [9]: F (Less than 50); % Control at ppm, against cotton aphid: 0.012 ([7]; rundown assay): A (90-100); % Control at ppm, against cotton aphid: 0.049 ([7]; rundown assay): A (90-100); % Control at ppm, against cotton aphid: 0.195 ([7]; rundown assay): A (90-100); % Control at ppm, against cotton aphid: 0.78 ([7]; rundown assay): A (90-100); % Control at ppm, against cotton aphid: 3.12 ([7]; rundown assay): A (90-100) |
| O=[N+]([O-])N=[S@@]1(=O)CCCC1Cc1ccc(Cl)nc1 (some centres unmarked) [Compound 41] |  | F (Less than 50) |  |  |  |  |  | 90 to 100% | G (Inactive) | D (60-69) | A (90-100) | A (90-100) | 90 to 100% | 90 to 100% | 90 to 100% | G (Inactive) | F (Less than 50) | F (Less than 50) | E (50-59) | D (60-69) | % Control at ppm, against green peach aphid: 12.5 ([9]; 12.5 ppm): A (90-100); % Control at ppm, against green peach aphid: 50 ([9]; 50 ppm): A (90-100); % Control at ppm, against Colorado potato beetle: 0.78 ([5]; 0.78 ppm, rundown assay): F (Less than 50); % Control at ppm, against Colorado potato beetle: 3.13 ([5]; rundown assay): F (Less than 50); % Control at ppm, against cotton aphid: 0.049 ([7]; rundown assay): C (70-79); % Control at ppm, against cotton aphid: 0.195 ([7]; rundown assay): A (90-100); % Control at ppm, against cotton aphid: 0.78 ([7]; rundown assay): A (90-100); % Control at ppm, against cotton aphid: 3.12 ([7]; rundown assay): A (90-100); % Control at ppm, against cotton aphid: 12.5 ([7]; 12.5 ppm, rundown assay): A (90-100); % Control at ppm, against cotton aphid: 50 ([7]; 50 ppm, rundown assay): A (90-100) |
